Data on 15 compounds can be found in patent US12091411B2, “IRAK degraders and uses thereof” (Kymera Therapeutics, Inc., priority 2022, dated 2024).

The target of the assay is T1, IRAK4 (Homo sapiens, UniProt Q9NWZ3).
T1 construct: Degradation of IRAK4 in OCI-LY10 was quantitatively measured using Meso Scale Discovery technology; endogenous in cells; host or cells: OCI-LY10
T1 sequence (Q9NWZ3 1-460): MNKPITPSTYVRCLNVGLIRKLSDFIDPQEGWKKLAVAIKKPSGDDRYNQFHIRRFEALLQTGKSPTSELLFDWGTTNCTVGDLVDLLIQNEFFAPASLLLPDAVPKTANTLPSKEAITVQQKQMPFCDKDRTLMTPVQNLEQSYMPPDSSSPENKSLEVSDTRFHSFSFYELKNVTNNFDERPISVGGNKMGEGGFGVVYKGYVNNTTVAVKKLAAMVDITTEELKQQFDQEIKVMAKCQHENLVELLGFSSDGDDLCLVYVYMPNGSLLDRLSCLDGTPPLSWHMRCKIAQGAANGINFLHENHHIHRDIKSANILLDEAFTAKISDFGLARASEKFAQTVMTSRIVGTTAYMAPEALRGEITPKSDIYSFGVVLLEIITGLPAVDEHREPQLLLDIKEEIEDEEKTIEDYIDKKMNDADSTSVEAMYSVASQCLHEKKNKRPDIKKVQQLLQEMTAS
Put plainly: IRAK4 MSD Degradation in OCI-LY10. Format: cell-based. The settings on record: OCI-LY10 cells, MSD. Put shortly: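 DC50, from a three-parameter logistic fit and reported as letter bins A (<0.01 μM), B, C, D (>0.2 μM or not tested), reflects IRAK4 loss measured by MSD electrochemiluminescence in OCI-LY10 lysates. Treatment: 8 doses, 1:3 steps, top 1 to 10 μM, 4 to 24 h, 37 °C.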

Where [1] appears, read: 4 hrs incubation, read-out: IRAK4 degradation in OCI-LY10 at 4 hrs: DC50.
Where [2] appears, read: 24 hrs incubation, read-out: IRAK4 degradation in OCI-LY10 at 24 hrs: DC50.

SMILES strings stand for the structures. Read-outs that look alike come from different tables or passages of the source.

In general, DC50 refers to the concentration at which degradation of the target reaches its halfway point.

Consider `Cn1c(=O)n(C2CCC(=O)NC2=O)c2cccc(C#CCN3CCN(C[C@H]4CC[C@H](n5cc(NC(=O)c6cnn7ccc(N8CC[C@@]9(CCOC9)C8)nc67)c(C(F)F)n5)CC4)CC3)c21` (stereo partly drawn) [I-419], for which the half-maximal degradation concentration (DC50) under setting [1] fell in the range of 10 to 100 nM and the DC50 under setting [2] is more than 200 nM.

With `Cn1c(=O)n(C2CCC(=O)NC2=O)c2cccc(C#CCOC3CCN([C@H]4CC[C@@H](n5cc(NC(=O)c6cnn7ccc(N8C[C@H]9C[C@@H]8CO9)nc67)c(C(F)F)n5)CC4)CC3)c21` (stereo partly drawn) [I-420], the 50% degradation concentration (DC50) reads like this: under setting [1], more than 200 nM; under setting [2], more than 200 nM.

On to `Cn1c(=O)n(C2CCC(=O)NC2=O)c2cccc(C#CCN3CCN([C@H]4CC[C@@H](n5cc(NC(=O)c6cnn7ccc(N8C[C@H]9C[C@@H]8CO9)nc67)c(C(F)F)n5)CC4)CC3)c21` (stereo partly drawn) [I-421], for which the DC50 is 10 to 100 nM under setting [1] and more than 200 nM under setting [2].

In the case of `Cn1c(=O)n(C2CCC(=O)NC2=O)c2cccc(N3CCC(N4CCN([C@H]5CC[C@@H](n6cc(NC(=O)c7cnn8ccc(N9C[C@H]%10C[C@@H]9CO%10)nc78)c(C(F)F)n6)CC5)CC4)CC3)c21` (stereo partly drawn) [I-422], the DC50 under setting [1] is more than 200 nM and the DC50 under setting [2] is more than 200 nM.

On to `Cn1c(=O)n(C2CCC(=O)NC2=O)c2cccc(C3CCN(C4CCN(C5CCC(n6cc(NC(=O)c7cnn8ccc(N9C[C@H]%10C[C@@H]9CO%10)nc78)c(C(F)F)n6)CC5)CC4)CC3)c21` (stereo partly drawn) [I-423], for which the half-maximal degradation concentration (DC50) is more than 200 nM under setting [1] and more than 200 nM under setting [2].

In the case of `Cn1c(=O)n(C2CCC(=O)NC2=O)c2cccc(N3CCN([C@H]4CC[C@@H](n5cc(NC(=O)c6cnn7ccc(N8C[C@H]9C[C@@H]8CO9)nc67)c(C(F)F)n5)CC4)CC3)c21` (stereo partly drawn) [I-424], the DC50 was more than 200 nM under setting [1] and more than 200 nM under setting [2].

As to `Cn1c(=O)n(C2CCC(=O)NC2=O)c2cccc(C#CCN3CCN(C[C@H]4CC[C@H](n5cc(NC(=O)c6cnn7ccc(C8CCOC8)nc67)c(C(F)F)n5)CC4)CC3)c21` (stereo partly drawn) [I-426], the DC50 is 10 to 100 nM under setting [1] and more than 200 nM under setting [2].

Consider `C[C@H]1CN(c2ccn3ncc(C(=O)Nc4cn([C@H]5CC[C@H](CN(C)C6CCN(c7cccc8c7n(C)c(=O)n8C7CCC(=O)NC7=O)CC6)CC5)nc4C(F)F)c3n2)CCO1` (stereo partly drawn) [I-427], for which the DC50 under setting [1] was more than 200 nM and the 50% degradation concentration (DC50) under setting [2] was less than 10 nM.

On to `C[C@@H]1CN(c2ccn3ncc(C(=O)Nc4cn([C@H]5CC[C@H](CN(C)C6CCN(c7cccc8c7n(C)c(=O)n8C7CCC(=O)NC7=O)CC6)CC5)nc4C(F)F)c3n2)CCO1` (stereo partly drawn) [I-428], for which the DC50 was more than 200 nM under setting [1] and less than 10 nM under setting [2].

Regarding `C[C@@H]1CN(c2ccn3ncc(C(=O)Nc4cn([C@H]5CC[C@H](CN6CCN(CC#Cc7cccc8c7n(C)c(=O)n8C7CCC(=O)NC7=O)CC6)CC5)nc4C(F)F)c3n2)C[C@H](C)O1` (stereo partly drawn) [I-429], the DC50 reads like this: under setting [1], more than 200 nM; under setting [2], more than 200 nM.

In the case of `C[C@H]1CN(c2ccn3ncc(C(=O)Nc4cn([C@H]5CC[C@H](CN6CCN(CC#Cc7cccc8c7n(C)c(=O)n8C7CCC(=O)NC7=O)CC6)CC5)nc4C(F)F)c3n2)C[C@H](C)O1` (stereo partly drawn) [I-430], the DC50 under setting [1] was more than 200 nM and the DC50 under setting [2] is less than 10 nM.

As for `C[C@@H]1CN(c2ccn3ncc(C(=O)Nc4cn([C@H]5CC[C@H](CN6CCN(CC#Cc7cccc8c7n(C)c(=O)n8C7CCC(=O)NC7=O)CC6)CC5)nc4C(F)F)c3n2)C[C@@H](C)O1` (stereo partly drawn) [I-431], the DC50 is more than 200 nM under setting [1] and less than 10 nM under setting [2].

In the case of `[2H]C([2H])([2H])Oc1ccc2c(c1C1CCN(C[C@H]3CC[C@H](n4cc5cc(NC(=O)c6cccc(C(F)(F)F)n6)ncc5n4)CC3)CC1)n(C([2H])([2H])[2H])c(=O)n2C1CCC(=O)NC1=O` (stereo partly drawn) [I-432], the DC50 reads like this: under setting [1], more than 200 nM; under setting [2], less than 10 nM.

As to `Cn1c(=O)n(C2CCC(=O)NC2=O)c2cccc(C#CCOC3CCN(C[C@H]4CC[C@H](n5cc(NC(=O)c6cnn7ccc(N8CCC(F)(F)CC8)nc67)c(C(F)F)n5)CC4)CC3)c21` (stereo partly drawn) [I-433], the 50% degradation concentration (DC50) reads like this: under setting [1], more than 200 nM; under setting [2], less than 10 nM.

Regarding `Cn1c(=O)n(C2CCC(=O)NC2=O)c2cccc(C#CCN3CCN(C[C@H]4CC[C@H](n5cc(NC(=O)c6cnn7ccc(N8CCC(F)(F)CC8)nc67)c(C(F)F)n5)CC4)CC3)c21` (stereo partly drawn) [I-434], the DC50 under setting [1] was more than 200 nM and the DC50 under setting [2] was less than 10 nM.
